Data from ChEMBL document CHEMBL1201862, “PubChem BioAssay data set” (2004).
One block for each compound: values may come before it. The source made the active and inactive calls.

Tests used:
Coagulation factor XII = molecular target: T1, Coagulation factor XII (Homo sapiens, UniProt P00748); experiment: FXIIa inhibitor potency, concentration-response, biochemical (AID 716); type: functional
T1 sequence (P00748 whole entry): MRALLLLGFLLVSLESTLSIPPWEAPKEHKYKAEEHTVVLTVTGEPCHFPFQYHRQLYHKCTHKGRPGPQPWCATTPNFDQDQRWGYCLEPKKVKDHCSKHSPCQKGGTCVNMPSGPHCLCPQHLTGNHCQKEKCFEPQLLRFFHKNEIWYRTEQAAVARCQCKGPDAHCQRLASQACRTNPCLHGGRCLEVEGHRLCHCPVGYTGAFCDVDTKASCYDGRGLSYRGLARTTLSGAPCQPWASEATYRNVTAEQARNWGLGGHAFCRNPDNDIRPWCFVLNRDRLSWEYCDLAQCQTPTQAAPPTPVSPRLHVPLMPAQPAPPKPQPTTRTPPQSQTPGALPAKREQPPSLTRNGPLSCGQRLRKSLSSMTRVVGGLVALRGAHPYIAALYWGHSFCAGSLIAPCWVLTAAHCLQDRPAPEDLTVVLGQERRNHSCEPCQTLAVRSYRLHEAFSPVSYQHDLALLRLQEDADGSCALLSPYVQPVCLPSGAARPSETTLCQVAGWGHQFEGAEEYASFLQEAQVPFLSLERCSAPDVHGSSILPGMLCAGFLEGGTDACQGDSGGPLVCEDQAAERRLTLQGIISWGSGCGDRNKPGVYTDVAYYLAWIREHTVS

X-box-binding protein 1 = X-box-binding protein 1 (Homo sapiens, UniProt P17861); type: functional, Cricetulus griseus;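 also: confirmatory dose-response counter-screen serving a CHOP assay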
X-box-binding protein 1, sequence (P17861 whole entry): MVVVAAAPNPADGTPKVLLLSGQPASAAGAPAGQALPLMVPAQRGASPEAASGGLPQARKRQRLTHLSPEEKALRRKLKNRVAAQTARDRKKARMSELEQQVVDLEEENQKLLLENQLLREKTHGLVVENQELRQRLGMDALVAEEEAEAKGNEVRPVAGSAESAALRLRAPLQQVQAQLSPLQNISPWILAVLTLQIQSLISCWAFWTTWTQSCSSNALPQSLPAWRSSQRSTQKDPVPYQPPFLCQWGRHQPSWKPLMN

[1] = molecular target: DNA damage-inducible transcript 3 protein (Mus musculus, UniProt P35639); type: functional, Cricetulus griseus
DNA damage-inducible transcript 3 protein, sequence (P35639 whole entry): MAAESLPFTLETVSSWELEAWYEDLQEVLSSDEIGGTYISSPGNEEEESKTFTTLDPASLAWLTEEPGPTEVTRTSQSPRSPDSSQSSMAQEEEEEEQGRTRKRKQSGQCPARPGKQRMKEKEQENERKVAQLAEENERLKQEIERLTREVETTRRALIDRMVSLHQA

[2] = molecular target: Protein phosphatase methylesterase 1 (Homo sapiens, UniProt Q9Y570); experiment: PME-1 inhibitors by competitive ABPP, late-stage follow-up, gel-based ABPP, IC50, set 1 (AID 463130); type: functional
Protein phosphatase methylesterase 1, sequence (Q9Y570 whole entry): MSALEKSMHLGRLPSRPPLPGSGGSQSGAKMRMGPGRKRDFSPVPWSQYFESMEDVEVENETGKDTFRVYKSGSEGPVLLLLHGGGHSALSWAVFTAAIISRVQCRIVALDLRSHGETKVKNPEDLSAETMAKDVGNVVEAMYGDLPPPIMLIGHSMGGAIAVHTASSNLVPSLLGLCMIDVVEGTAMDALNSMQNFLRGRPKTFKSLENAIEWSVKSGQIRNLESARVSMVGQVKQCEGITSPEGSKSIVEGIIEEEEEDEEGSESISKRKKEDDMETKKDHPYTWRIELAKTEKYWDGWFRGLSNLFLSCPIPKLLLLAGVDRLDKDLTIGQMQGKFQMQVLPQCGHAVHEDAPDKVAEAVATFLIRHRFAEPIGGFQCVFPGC

HEK293 [3] = experiment: cells; type: functional, cell-based; details: Homo sapiens
[4] = molecular target: Nucleotide-binding oligomerization domain-containing protein 2 (Homo sapiens, UniProt Q9HC29); experiment: NOD2 signaling inhibitors, cell-based, luminescence, uHTS, HEK293 (AID 1566); type: functional
Nucleotide-binding oligomerization domain-containing protein 2, sequence (Q9HC29 whole entry, the tested form may be a part): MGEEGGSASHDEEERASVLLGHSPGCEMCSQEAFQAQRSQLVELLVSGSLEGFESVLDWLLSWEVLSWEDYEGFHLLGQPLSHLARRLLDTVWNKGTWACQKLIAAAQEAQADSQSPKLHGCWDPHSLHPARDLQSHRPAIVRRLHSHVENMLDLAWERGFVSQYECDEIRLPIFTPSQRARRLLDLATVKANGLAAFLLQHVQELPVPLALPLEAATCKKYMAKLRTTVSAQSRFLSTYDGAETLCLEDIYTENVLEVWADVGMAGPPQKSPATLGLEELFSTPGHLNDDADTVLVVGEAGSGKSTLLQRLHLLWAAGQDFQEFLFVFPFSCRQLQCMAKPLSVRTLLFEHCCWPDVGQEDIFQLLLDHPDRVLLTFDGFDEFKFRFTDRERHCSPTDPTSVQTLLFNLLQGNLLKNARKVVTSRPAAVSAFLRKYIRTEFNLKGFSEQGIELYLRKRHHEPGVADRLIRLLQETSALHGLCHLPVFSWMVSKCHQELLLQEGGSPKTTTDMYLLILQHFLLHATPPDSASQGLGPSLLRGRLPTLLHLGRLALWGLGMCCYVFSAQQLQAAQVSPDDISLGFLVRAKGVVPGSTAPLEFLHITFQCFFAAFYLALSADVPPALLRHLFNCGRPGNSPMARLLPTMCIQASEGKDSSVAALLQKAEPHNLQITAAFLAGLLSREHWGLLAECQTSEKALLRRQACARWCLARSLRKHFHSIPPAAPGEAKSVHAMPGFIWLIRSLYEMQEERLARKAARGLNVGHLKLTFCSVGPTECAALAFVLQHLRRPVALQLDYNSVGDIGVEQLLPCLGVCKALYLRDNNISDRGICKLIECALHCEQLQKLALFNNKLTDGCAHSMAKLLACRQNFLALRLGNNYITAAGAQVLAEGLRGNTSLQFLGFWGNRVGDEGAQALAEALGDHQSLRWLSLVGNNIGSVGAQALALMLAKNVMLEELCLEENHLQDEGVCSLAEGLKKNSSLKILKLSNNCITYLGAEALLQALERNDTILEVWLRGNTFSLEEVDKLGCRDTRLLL

HEK293 [5] = experiment: NOD1 signaling inhibitors, primary screen, cell-based, luminescence, uHTS (AID 1578); type: functional; details: Homo sapiens
HEK293 [6] = experiment: NOD2 signaling inhibitors in MDP-stimulated cells, cell-based, uHTS, luminescence (AID 2001); type: functional; details: Homo sapiens
HEK293 [7] = experiment: cells; type: functional, cell-based; details: Homo sapiens; remark: listed apart in the source
[8] = molecular target: Delta-type opioid receptor (Homo sapiens, UniProt P41143); experiment: SAR Analysis of Antagonists of the DOR Receptor using an Image-Based Assay - Set 3. [Related pubchem assays (depositor defined):AID1777, AID1785]; type: functional;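 also: U2OS cells expressing DOR1 and beta-arrestin GFP stimulated with 100 nM SNC80; imaging of GFP-tagged beta-arrestin moving into spots after receptor activation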
Delta-type opioid receptor, sequence (P41143 whole entry): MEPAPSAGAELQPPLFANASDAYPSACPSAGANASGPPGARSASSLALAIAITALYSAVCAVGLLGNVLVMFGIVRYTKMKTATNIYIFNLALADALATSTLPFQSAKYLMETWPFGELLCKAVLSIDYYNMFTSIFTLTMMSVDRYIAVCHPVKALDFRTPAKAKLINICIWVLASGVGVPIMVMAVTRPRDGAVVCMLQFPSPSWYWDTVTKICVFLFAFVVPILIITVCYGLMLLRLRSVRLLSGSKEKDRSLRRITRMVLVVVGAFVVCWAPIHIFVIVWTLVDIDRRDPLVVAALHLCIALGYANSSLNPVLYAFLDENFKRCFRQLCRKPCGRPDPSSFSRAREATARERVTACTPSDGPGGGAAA

[9] = molecular target: T2, Kappa-type opioid receptor (Homo sapiens, UniProt P41145); experiment: SAR analysis of Antagonists of the Kappa Opioid Receptor (KOR) using an Image-Based Assay - Set 3. [Related pubchem assays (depositor defined):AID1777, AID1785]; type: functional
T2 sequence (P41145 whole entry): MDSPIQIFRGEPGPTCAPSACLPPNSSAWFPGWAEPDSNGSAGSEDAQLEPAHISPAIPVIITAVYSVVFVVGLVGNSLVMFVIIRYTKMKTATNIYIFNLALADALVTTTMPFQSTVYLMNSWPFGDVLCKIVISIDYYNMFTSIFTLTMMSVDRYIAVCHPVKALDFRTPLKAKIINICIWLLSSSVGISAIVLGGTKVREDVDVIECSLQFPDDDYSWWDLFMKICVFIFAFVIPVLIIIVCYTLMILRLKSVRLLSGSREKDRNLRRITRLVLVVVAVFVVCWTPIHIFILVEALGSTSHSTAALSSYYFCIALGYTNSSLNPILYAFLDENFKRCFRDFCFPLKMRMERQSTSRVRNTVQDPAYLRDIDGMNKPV

[10] = molecular target: T2, Kappa-type opioid receptor; experiment: SAR analysis of small molecule antagonists of the kappa opioid receptor via a luminescent beta-arrestin assay - Set 3. [Related pubchem assays (depositor defined):AID1777, AID1778, AID1785, AID1786, AID1966, AID2133, AID2136, AID2285, AID2495]; type: functional
Mu-type opioid receptor = Mu-type opioid receptor (Homo sapiens, UniProt P35372); experiment: SAR Analysis of Antagonists of the MOR Receptor using an Image-Based Assay - Set 3. [Related pubchem assays (depositor defined):AID1777, AID1785, AID1786, AID1966, AID2133, AID2136, AID2284, AID2285, AID2420]; type: functional
Mu-type opioid receptor, sequence (P35372 whole entry): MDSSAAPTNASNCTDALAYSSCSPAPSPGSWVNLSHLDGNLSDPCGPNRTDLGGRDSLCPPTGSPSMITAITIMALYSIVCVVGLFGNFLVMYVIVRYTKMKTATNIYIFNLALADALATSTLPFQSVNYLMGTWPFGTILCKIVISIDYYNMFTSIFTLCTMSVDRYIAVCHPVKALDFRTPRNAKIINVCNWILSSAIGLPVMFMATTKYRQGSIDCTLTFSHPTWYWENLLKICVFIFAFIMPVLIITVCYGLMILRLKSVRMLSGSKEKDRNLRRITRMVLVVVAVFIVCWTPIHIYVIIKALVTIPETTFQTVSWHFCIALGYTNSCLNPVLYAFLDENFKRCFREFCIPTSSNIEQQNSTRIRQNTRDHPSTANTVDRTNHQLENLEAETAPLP

[11] = molecular target: T2, Kappa-type opioid receptor; experiment: SAR analysis of Antagonists of the Kappa Opioid Receptor (KOR) using an Image-Based Assay - Set 4. [Related pubchem assays (depositor defined):AID1777, AID1785]; type: functional
[12] = molecular target: T2, Kappa-type opioid receptor; experiment: SAR analysis of small molecule antagonists of the kappa opioid receptor via a luminescent beta-arrestin assay - Set 6. [Related pubchem assays (depositor defined):AID1777, AID1778, AID1785, AID1786, AID1966, AID2133, AID2136, AID2285]; type: functional
[13] = molecular target: T2, Kappa-type opioid receptor; experiment: SAR analysis of small molecule antagonists of the kappa opioid receptor via a luminescent beta-arrestin assay - Set 4. [Related pubchem assays (depositor defined):AID1777, AID1778, AID1785, AID1786, AID1966, AID2133, AID2136, AID2285]; type: functional
Hexokinase = Hexokinase (Trypanosoma brucei, UniProt Q38C41); experiment: Confirmation assay for inhibitors of Trypanosoma brucei hexokinase 1-Analogue-first series. [Related pubchem assays (depositor defined):AID1430, AID1632, AID2516, AID2560, AID2579, AID2600, AID449725, AID492951]; type: functional
[14] = molecular target: Heat shock protein HSP 90-alpha (Homo sapiens, UniProt P07900); type: functional, organism-based
[15] = Luminescence Cell-Based Dose Retest to Confirm Inhibitors of Cancer Stem Cells. [Related pubchem assays (depositor defined):AID2717, AID2721]; type: functional; details: Homo sapiens
[16] = molecular target: T3, Short transient receptor potential channel 4 (Mus musculus, UniProt Q9QUQ5); experiment: TRPC4 positive allosteric modulators, dose response, cell-based, HEK293 TRPC4/mu-opioid, Fluo-4 calcium, EC20 DAMGO (AID 434941); type: functional
T3 sequence (Q9QUQ5 whole entry): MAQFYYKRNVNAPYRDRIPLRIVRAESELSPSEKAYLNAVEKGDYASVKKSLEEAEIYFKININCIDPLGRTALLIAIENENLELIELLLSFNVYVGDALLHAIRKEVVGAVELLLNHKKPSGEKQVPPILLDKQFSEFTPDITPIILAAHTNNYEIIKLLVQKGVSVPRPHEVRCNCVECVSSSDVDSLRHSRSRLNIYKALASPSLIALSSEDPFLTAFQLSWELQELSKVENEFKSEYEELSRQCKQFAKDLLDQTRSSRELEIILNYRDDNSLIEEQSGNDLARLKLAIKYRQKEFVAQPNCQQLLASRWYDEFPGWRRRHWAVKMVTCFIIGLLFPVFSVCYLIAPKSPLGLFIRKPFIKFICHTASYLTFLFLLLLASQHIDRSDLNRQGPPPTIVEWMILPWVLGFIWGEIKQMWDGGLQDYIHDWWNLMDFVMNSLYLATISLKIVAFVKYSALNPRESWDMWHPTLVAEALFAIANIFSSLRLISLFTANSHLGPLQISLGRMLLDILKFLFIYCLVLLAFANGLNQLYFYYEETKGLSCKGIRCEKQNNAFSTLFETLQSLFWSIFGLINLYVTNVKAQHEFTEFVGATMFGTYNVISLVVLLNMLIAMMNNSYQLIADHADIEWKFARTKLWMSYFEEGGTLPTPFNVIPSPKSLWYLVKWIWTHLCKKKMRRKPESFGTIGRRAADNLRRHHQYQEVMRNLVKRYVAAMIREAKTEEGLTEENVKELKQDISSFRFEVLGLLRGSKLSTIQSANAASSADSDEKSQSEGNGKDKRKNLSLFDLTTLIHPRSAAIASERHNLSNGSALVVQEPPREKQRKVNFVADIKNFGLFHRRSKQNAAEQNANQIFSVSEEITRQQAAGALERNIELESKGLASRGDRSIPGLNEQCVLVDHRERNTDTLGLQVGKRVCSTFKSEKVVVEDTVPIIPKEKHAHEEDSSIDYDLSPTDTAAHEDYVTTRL

[17] = nonselective inhibitors of cellular cAMP signaling, dose response, counter-screen for MC4R biased antagonist project, cell-based, TR-FRET cAMP detection (AID 602305); type: functional;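 also: U2OS cells stimulated with forskolin near its EC80 as the cAMP inducer; potency is for inhibition of forskolin-stimulated cAMP signaling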
Melanocortin receptor 4 = Melanocortin receptor 4 (Homo sapiens, UniProt P32245); experiment: MC4R antagonist potency on cAMP, dose response, cell-based, TR-FRET, biased antagonists (AID 602298); type: functional;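 also: antagonist potency against agonist-stimulated cAMP production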
Melanocortin receptor 4, sequence (P32245 whole entry): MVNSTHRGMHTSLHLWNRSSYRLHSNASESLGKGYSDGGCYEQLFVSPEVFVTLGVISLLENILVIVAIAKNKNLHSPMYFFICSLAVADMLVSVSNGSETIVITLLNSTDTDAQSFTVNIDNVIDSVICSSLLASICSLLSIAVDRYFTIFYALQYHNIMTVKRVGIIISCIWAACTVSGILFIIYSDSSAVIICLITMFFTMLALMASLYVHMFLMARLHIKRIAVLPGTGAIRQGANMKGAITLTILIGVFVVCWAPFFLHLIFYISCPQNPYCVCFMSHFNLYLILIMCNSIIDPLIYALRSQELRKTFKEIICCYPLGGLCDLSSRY

Ion channel NompC = Ion channel NompC (Danio rerio, UniProt Q7T1G6); experiment: Dose response cell-based high-throughput screening assay for agonists of the transient receptor potential channel N1 (TRPN1). [Related pubchem assays (depositor defined):AID1424, AID1448]; type: functional
Mucolipin-3 = molecular target: T4, Mucolipin-3 (Homo sapiens, UniProt Q8TDD5); experiment: Fluorescence counterscreen assay for […] agonists: dose response cell-based high-throughput screening assay to identify agonists of the transient receptor potential channel ML3 (TRPML3). [Related pubchem assays: 1424, 1448 ]; type: functional
T4 sequence (Q8TDD5 whole entry): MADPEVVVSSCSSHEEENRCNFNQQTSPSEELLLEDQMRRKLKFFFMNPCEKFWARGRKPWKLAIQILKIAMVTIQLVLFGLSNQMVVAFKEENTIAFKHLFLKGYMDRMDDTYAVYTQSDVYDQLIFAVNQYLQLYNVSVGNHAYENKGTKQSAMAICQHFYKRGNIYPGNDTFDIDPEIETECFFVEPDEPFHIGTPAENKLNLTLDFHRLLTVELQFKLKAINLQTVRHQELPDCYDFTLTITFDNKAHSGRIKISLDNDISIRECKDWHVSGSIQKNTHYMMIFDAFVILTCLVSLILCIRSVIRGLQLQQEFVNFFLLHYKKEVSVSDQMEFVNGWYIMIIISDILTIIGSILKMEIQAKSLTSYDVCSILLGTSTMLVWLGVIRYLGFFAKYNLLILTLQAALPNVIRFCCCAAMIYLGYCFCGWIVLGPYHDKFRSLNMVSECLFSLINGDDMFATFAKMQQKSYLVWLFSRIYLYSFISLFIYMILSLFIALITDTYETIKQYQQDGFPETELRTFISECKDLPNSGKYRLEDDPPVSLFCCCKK

[18] = molecular target: T5, G-protein coupled receptor 35 (Homo sapiens, UniProt Q9HC97); experiment: SAR analysis of Antagonists of the GPR35 Receptor using an Image-Based Assay - Set 4. [Related pubchem assays (depositor defined):[…]]; type: functional
T5 sequence (Q9HC97 whole entry): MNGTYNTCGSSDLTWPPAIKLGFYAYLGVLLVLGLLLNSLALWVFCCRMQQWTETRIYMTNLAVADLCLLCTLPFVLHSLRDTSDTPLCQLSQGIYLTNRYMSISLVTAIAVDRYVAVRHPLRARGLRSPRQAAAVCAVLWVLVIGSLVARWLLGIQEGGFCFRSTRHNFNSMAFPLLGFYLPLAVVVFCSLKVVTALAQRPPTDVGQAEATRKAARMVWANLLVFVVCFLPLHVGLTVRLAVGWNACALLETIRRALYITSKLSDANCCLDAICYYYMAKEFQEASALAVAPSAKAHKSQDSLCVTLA

Cannabinoid receptor 2 [19] = molecular target: T6, Cannabinoid receptor 2 (Homo sapiens, UniProt P34972); experiment: SAR analysis of antagonists of the Cannabinoid Receptor 2 using an Image-Based Assay - Set 2. [Related pubchem assays (depositor defined):AID1961, AID1965]; type: functional
T6 sequence (P34972 whole entry): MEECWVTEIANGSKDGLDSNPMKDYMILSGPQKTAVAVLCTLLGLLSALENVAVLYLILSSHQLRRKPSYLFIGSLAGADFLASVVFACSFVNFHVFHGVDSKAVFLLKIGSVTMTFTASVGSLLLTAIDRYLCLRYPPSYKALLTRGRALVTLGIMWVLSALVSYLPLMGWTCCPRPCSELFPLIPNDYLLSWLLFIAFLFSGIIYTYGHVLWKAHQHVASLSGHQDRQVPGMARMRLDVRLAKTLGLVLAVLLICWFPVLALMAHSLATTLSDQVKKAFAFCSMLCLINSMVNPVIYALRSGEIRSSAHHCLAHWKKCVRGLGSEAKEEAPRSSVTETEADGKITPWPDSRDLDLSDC

[20] = molecular target: G-protein coupled receptor 55 (Homo sapiens, UniProt Q9Y2T6); experiment: SAR analysis of selective Agonists of GPR55 using an Image-Based Assay - Set 2. [Related pubchem assays (depositor defined):AID1961, AID1965]; type: functional
G-protein coupled receptor 55, sequence (Q9Y2T6 whole entry): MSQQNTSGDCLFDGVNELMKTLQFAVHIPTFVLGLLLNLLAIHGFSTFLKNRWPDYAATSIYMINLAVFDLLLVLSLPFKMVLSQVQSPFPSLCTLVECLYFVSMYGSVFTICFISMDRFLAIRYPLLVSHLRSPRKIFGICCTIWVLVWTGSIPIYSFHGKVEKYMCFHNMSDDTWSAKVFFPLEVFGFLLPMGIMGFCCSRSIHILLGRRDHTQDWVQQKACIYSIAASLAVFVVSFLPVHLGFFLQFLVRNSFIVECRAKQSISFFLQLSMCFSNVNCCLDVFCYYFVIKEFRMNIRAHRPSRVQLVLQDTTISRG

Cannabinoid receptor 1 [21] = molecular target: T7, Cannabinoid receptor 1 (Homo sapiens, UniProt P21554); experiment: SAR analysis of agonists of the Cannabinoid Receptor 1 using an Image-Based Assay - Set 3. [Related pubchem assays (depositor defined):AID1961, AID1965]; type: functional
T7 sequence (P21554 whole entry): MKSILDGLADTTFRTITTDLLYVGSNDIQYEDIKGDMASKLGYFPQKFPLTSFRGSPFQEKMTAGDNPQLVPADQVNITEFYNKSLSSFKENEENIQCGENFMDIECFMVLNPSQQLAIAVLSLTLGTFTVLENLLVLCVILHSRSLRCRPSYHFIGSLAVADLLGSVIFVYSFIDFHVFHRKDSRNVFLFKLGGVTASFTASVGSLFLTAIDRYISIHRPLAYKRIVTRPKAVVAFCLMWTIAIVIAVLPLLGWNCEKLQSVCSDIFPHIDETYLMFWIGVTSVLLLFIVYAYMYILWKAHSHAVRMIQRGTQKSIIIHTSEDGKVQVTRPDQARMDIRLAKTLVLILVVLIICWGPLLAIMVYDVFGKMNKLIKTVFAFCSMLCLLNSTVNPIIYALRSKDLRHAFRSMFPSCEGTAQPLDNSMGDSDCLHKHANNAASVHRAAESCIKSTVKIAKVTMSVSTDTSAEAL

Cannabinoid receptor 2 [22] = molecular target: T6, Cannabinoid receptor 2; experiment: SAR analysis of agonists of the Cannabinoid Receptor 2 using an Image-Based Assay - Set 2. [Related pubchem assays (depositor defined):AID1961, AID1965]; type: functional
Cannabinoid receptor 1 [23] = molecular target: T7, Cannabinoid receptor 1; experiment: SAR analysis of antagonists of the Cannabinoid Receptor 1 using an Image-Based Assay - Set 3. [Related pubchem assays (depositor defined):AID1961, AID1965]; type: functional
[24] = molecular target: T5, G-protein coupled receptor 35; experiment: SAR analysis of Agonists of the GPR35 Receptor using an Image-Based Assay - Set 3. [Related pubchem assays (depositor defined):AID1961, AID1965]; type: functional

SMILES: Cc1c(/C=N/NC(=O)c2ccccc2O)c2ccccn2c1C(=O)c1ccc(F)cc1
- IC50 (HEK293 [3]): 11.5 µM (active)
- EC50 [4]: 6.46 µM (active)
- EC50 (HEK293 [5]): 10.3 µM (active)
- IC50 (HEK293 [6]): 6.49 µM (active)
- IC50 (HEK293 [7]): 10.9 µM (active)

SMILES: Cc1ccc(Cl)cc1N1CCN(CCNC(=O)Cn2c(=O)c3cccn3c3cccnc32)CC1
- IC50 [8]: > 32 µM (inactive)
- IC50 [9]: > 32 µM (inactive)
- IC50 [10]: > 20 µM (inactive)
- IC50 (Mu-type opioid receptor): 3.98 µM (active)

SMILES: CCOC(=O)c1ccncc1NC(=O)c1ccc(OC)cc1
- IC50 (Hexokinase): > 25 µM (inactive)

SMILES: CC1CCN(c2nc(Cl)nc(Nc3ccc([N+](=O)[O-])cc3)n2)CC1
- AC50 [14]: 17.6 µM (active)
- AC50 [15]: 2.99 µM (active)
- EC50 [16]: 3.35 µM (active)
- IC50 [17]: > 64.5 µM (inactive)
- IC50 (Melanocortin receptor 4): > 64.5 µM (inactive)

SMILES: CCN(CC)S(=O)(=O)c1ccc(N2CCCCC2)c(C(=O)N2CCN(c3ccccc3)CC2)c1
- IC50 [18]: > 32 µM (inactive)
- IC50 (Cannabinoid receptor 2 [19]): > 32 µM (inactive)
- EC50 [20]: > 32 µM (inactive)
- EC50 (Cannabinoid receptor 1 [21]): > 32 µM (inactive)
- EC50 (Cannabinoid receptor 2 [22]): > 32 µM (inactive)
- IC50 (Cannabinoid receptor 1 [23]): 9.36 µM (active)
- EC50 [24]: > 32 µM (inactive)

Now from value to compound, other results behind:

- IC50 (Coagulation factor XII): > 50 µM (inactive)
SMILES: COC(=O)c1ccccc1NC(=O)N1CCN(C(=O)c2ccco2)CC1

- Absolute IC50 (XBP1) (X-box-binding protein 1): 10 µM
SMILES: O=C(Nc1ccccc1O)c1c(O)nc2c(c1O)CCCC2
- Absolute IC50 (CHOP) [1]: 10 µM

- IC50 [2]: 10.7 µM (inactive)
SMILES: COC(=O)N1C(=O)[C@](c2ccsc2)(C(C)C)N1C(=O)OC

- IC50 [8]: > 32 µM (inactive)
- IC50 [11]: 0.137 µM (active)
- IC50 (Mu-type opioid receptor): 3.31 µM (active)
- IC50 [12]: 0.71 µM (active)
- IC50 [13]: 0.558 µM (active)
SMILES: Cc1ccc(S(=O)(=O)NCc2ccc(C(=O)NCCN(Cc3ccccc3)C3CCCC3)cc2)cc1

- EC50 (Ion channel NompC): > 29.9 µM (inactive)
- EC50 (Mucolipin-3): > 29.9 µM (not active)
SMILES: O=C(Nc1ccccc1)Nc1ccc2snnc2c1
